Entries after “also recorded” stand apart in the source; their conditions may differ.
Experiments:
[1] = DPPH free radical scavenging assay; conditions: 517 nm; for DPPH (%): radical scavenging, concentration not given; for EC50: read-out: EC50 (DPPH radical scavenging)
mushroom tyrosinase [2] = biological target: T1, mushroom tyrosinase (Agaricus bisporus, UniProt C7FF04); assay: Enzymatic assay for tyrosinase inhibition; assay type: biochemical; conditions: read-out: Inhibition% ± SEM
mushroom tyrosinase [3] = biological target: T1, mushroom tyrosinase; assay: Determination of the inhibition type; assay type: biochemical; conditions: Lineweaver-Burk

T1 sequence (C7FF04 2-392): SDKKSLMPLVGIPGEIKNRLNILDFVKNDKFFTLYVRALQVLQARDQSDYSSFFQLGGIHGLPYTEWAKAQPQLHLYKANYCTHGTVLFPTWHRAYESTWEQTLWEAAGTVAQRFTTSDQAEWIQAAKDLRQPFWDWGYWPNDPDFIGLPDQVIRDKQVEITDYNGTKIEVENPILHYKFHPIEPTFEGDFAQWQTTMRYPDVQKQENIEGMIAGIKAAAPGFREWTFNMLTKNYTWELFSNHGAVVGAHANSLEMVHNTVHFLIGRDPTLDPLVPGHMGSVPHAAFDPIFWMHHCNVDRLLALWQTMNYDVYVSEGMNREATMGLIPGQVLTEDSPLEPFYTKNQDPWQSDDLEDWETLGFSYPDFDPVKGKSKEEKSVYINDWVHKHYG

Compound | EC50 [1] [µM] | inhibition at 50 µM (mushroom tyrosinase [2]) [%] | Km value with increasing inhibitor concentration (mushroom tyrosinase [3]; L-Dopa) | Vmax with increasing inhibitor concentration (mushroom tyrosinase [3]; L-Dopa) | DPPH (%) [1] [%] | inhibition type (mushroom tyrosinase [3]; inhibitor 0, 12.64, 25.29, 50.58 μM, L-Dopa 0.5-10.0 mM)
Cc1c(O)c(=O)ccn1-c1cccc(C(=O)NN=Cc2ccccc2[N+](=O)[O-])c1 [6a, 3-(3-hydroxy-2-methyl-4-oxopyridin-1(4H)-yl)-N′-(2-nitrobenzylidene)benzohydrazide] | 32 ± 10 | 46.1 ± 8.21 | – | – | 77.15 | –
Cc1ccc(C=NNC(=O)c2cccc(-n3ccc(=O)c(O)c3C)c2)cc1 [6d, 3-(3-hydroxy-2-methyl-4-oxopyridin-1(4H)-yl)-N′-(4-methylbenzylidene)benzohydrazide] | 369 ± 10 | 49 ± 7.51 | – | – | 39.13 | –
Cc1c(O)c(=O)ccn1-c1cccc(C(=O)NN=Cc2ccc(F)cc2)c1 [6b, 3-(3-hydroxy-2-methyl-4-oxopyridin-1(4H)-yl)-N′-(4-fluorobenzylidene)benzohydrazide] | 12 | 43.1 ± 3.41 | – | – | 71.42 | –
Cc1c(O)c(=O)ccn1-c1cccc(C(=O)NN=Cc2ccc(C#N)cc2)c1 [6c, 3-(3-hydroxy-2-methyl-4-oxopyridin-1(4H)-yl)-N′-(4-cyanobenzylidene)benzohydrazide] | 216 ± 80 | 30.8 ± 2.85 | – | – | 43.67 | –

More lines, main results first:

EC50 [1] [µM] | inhibition at 50 µM (mushroom tyrosinase [2]) [%] | Km value with increasing inhibitor concentration (mushroom tyrosinase [3]; L-Dopa) | Vmax with increasing inhibitor concentration (mushroom tyrosinase [3]; L-Dopa) | Compound | DPPH (%) [1] [%] | inhibition type (mushroom tyrosinase [3]; inhibitor 0, 12.64, 25.29, 50.58 μM, L-Dopa 0.5-10.0 mM)
8.9 | – | – | – | O=c1c(O)c(-c2ccc(O)c(O)c2)oc2cc(O)cc(O)c12 [Quercetin, reference compound] | 74.33 | –
185 ± 130 | 49.6 ± 12.6 | increased | not affected | Cc1c(O)c(=O)ccn1-c1cccc(C(=O)NN=Cc2cc(Br)ccc2O)c1 [6i, 3-(3-hydroxy-2-methyl-4-oxopyridin-1(4H)-yl)-N′-(5-bromo-2-hydroxybenzylidene)benzohydrazide] | 42.64 | competitive inhibitor; also recorded: competitive type of inhibition
168 ± 30 | 34.8 ± 3.83 | – | – | COc1cccc(C=NNC(=O)c2cccc(-n3ccc(=O)c(O)c3C)c2)c1[N+](=O)[O-] [6f, 3-(3-hydroxy-2-methyl-4-oxopyridine-1(4H)-yl)-N′-(3-methoxy-2-nitrobenzylidene)benzohydrazide] | 43.67 | –
383 ± 120 | 40.4 ± 5 | – | – | Cc1c(O)c(=O)ccn1-c1cccc(C(=O)NN=Cc2ccc([N+](=O)[O-])s2)c1 [6j, 3-(3-hydroxy-2-methyl-4-oxopyridin-1(4H)-yl)-N'-((5-nitrothiophen-2-yl)methylene)benzohydrazide] | 42.74 | –
191 ± 70 | 28.1 ± 3.97 | – | – | Cc1c(O)c(=O)ccn1-c1cccc(C(=O)NN=Cc2ccc(Cl)cc2Cl)c1 [6g, 3-(3-hydroxy-2-methyl-4-oxopyridin-1(4H)-yl)-N′-(2,4-dichlorobenzylidene)benzohydrazide] | 39.11 | –
14 ± 10 | 41.7 ± 4.07 | – | – | Cc1c(O)c(=O)ccn1-c1cccc(C(=O)NN=Cc2ccc(C(C)C)cc2)c1 [6e, 3-(3-hydroxy-2-methyl-4-oxopyridin-1(4H)-yl)-N′-(4-isopropylbenzylidene)benzohydrazide] | 61.44 | –
> 400 | 11.4 ± 2.59 | – | – | Cc1c(O)c(=O)ccn1-c1cccc(C(=O)NN=Cc2cc([N+](=O)[O-])ccc2Cl)c1 [6h, 3-(3-hydroxy-2-methyl-4-oxopyridin-1(4H)-yl)-N′-(2-chloro-5-nitrobenzylidene)benzohydrazide] | 31.91 | –
